Assay [1] deals with P. aeruginosa ATCC 27853 (APAE001). Briefly: MIC assay, CLSI broth microdilution. The note with it: Pseudomonas aeruginosa, ATCC27853, read-out: MIC APAE001. Type of assay: cell-based. An outline of the steps:
(§1)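 MICs were read after 20 hours at 35° C in ambient air, with a final inoculum of 5×10^5 CFU/mL from saline-suspended overnight colonies. Serial two-fold dilutions in Mueller Hinton Broth followed the CLSI reference method (M7-A7), with QC strains E. coli ATCC 25922, P. aeruginosa ATCC 27853 and S. aureus ATCC 29213.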
A general note: In broth dilution the organism is exposed to a series of concentrations in liquid medium.

Assay [2] concerns E. coli ATCC 25922 (AECO001). Kind of assay: MIC assay, CLSI broth microdilution. To be noted: Escherichia coli, ATCC25922, read-out: MIC AECO001. Type of assay: cell-based. An outline of the steps: as §1

In brackets after ≈: the same amount, converted by molar mass.

Usually MIC stands for the lowest concentration found to suppress growth.

As to `CN[C@@H]1[C@@H](O)[C@@H](O[C@@H]2[C@@H](O)[C@H](O[C@H]3OC(CNCC4(N)CC4)=CC[C@H]3N)[C@@H](N)C[C@H]2NC(=O)[C@@H](O)CN)OC[C@]1(C)O` [Example 67, 6′-(Methyl-1-Amino-cyclopropyl)-1-(3-amino-2(S)-hydroxy-propionyl)-sisomicin], the MIC in assay [1] and in assay [2] was 1 to 16 µg/mL (≈ 1.66 to 26.5 µM) each time.
Take `CN[C@@H]1[C@@H](O)[C@@H](O[C@@H]2[C@@H](O)[C@H](O[C@H]3OC(CNCC(O)CCN)=CC[C@H]3N)[C@@H](N)C[C@H]2NC(=O)[C@@H](O)CN)OC[C@]1(C)O` (stereo partly drawn) [Example 68, 6′-(2-Hydroxy-4-amino-butyl)-1-(3-amino-2(S)-hydroxy-propionyl)-sisomicin]: the MIC in assay [1] and in assay [2] was 1 to 16 µg/mL (≈ 1.61 to 25.7 µM) in each case.
`CN[C@@H]1[C@@H](O)[C@@H](O[C@@H]2[C@@H](O)[C@H](O[C@H]3OC(CNC[C@H]4C[C@@H](N)[C@@H](O)C4)=CC[C@H]3N)[C@@H](N)C[C@H]2NC(=O)[C@@H](O)CN)OC[C@]1(C)O` [Example 69, 6′-(Methyl-1(R)-amino-2(S)-hydroxy-cyclopent-4(S)-yl)-1-(3-amino-2(S)-hydroxy-propionyl)-sisomicin]: the figures for the MIC in assay [1] and in assay [2] were 1 to 16 µg/mL (≈ 1.54 to 24.7 µM) and less than 1 µg/mL, respectively.
On to `CN[C@@H]1[C@@H](O)[C@@H](O[C@@H]2[C@@H](O)[C@H](O[C@H]3OC(CNCCC4(O)CNC4)=CC[C@H]3N)[C@@H](N)C[C@H]2NC(=O)[C@@H](O)CN)OC[C@]1(C)O` [Example 70, 6′-(Ethyl-2-(3-hydroxy-azetidin-3-yl))-1-(3-amino-2(S)-hydroxy-propionyl)-sisomicin], for which the MIC in assay [1] was more than 16 µg/mL; in assay [2] it was 1 to 16 µg/mL (≈ 1.58 to 25.2 µM).
For `CN[C@@H]1[C@@H](O)[C@@H](O[C@@H]2[C@@H](O)[C@H](O[C@H]3OC(CNCC4CC4)=CC[C@H]3N)[C@@H](N)C[C@H]2NC(=O)C(O)C2CNC2)OC[C@]1(C)O` (some centres unmarked) [Example 71, 6′-Methylcyclopropyl-1-(2-(azetidin-3-yl)-2-hydroxy-acetyl)-sisomicin], in that order: more than 16 µg/mL and 1 to 16 µg/mL (≈ 1.63 to 26 µM).
For `CN[C@@H]1[C@@H](O)[C@@H](O[C@@H]2[C@@H](O)[C@H](O[C@H]3OC(CNC[C@H]4C[C@H](N)C4)=CC[C@H]3N)[C@@H](N)C[C@H]2NC(=O)C(O)C2CNC2)OC[C@]1(C)O` (stereo partly drawn) [Example 72, 6′-(Methyl-trans-3-amino-cyclobutyl)-1-(2-(azetidin-3-yl)-2-hydroxy-acetyl)-sisomicin], in that order: 1 to 16 µg/mL (≈ 1.55 to 24.9 µM) and 1 to 16 µg/mL (≈ 1.55 to 24.9 µM).
For `CN[C@@H]1[C@@H](O)[C@@H](O[C@@H]2[C@@H](O)[C@H](O[C@H]3OC(CNCC4CNC4)=CC[C@H]3N)[C@@H](N)C[C@H]2NC(=O)[C@@H](O)CN)OC[C@]1(C)O` [Example 73, 6′-(Methyl-azetidin-3-yl)-1-(3-amino-2(S)-hydroxy-propionyl)-sisomicin], in that order: 1 to 16 µg/mL (≈ 1.66 to 26.5 µM) and 1 to 16 µg/mL (≈ 1.66 to 26.5 µM).
Take `CN[C@@H]1[C@@H](O)[C@@H](O[C@@H]2[C@@H](O)[C@H](O[C@H]3OC(CNCC4(CN)CC4)=CC[C@H]3N)[C@@H](N)C[C@H]2NC(=O)C(O)C2CNC2)OC[C@]1(C)O` (some centres unmarked) [Example 74, 6′-(Methyl-1-aminomethyl-cyclopropyl)-1-(2-(azetidin-3-yl)-2-hydroxy-acetyl)-sisomicin]: the MIC in assay [1] was more than 16 µg/mL; in assay [2], 1 to 16 µg/mL (≈ 1.55 to 24.9 µM).
For `CN[C@@H]1[C@@H](O)[C@@H](O[C@@H]2[C@@H](O)[C@H](O[C@H]3OC(CNCCO)=CC[C@H]3N)[C@@H](N)C[C@H]2NC(=O)C(O)C2CNC2)OC[C@]1(C)O` (some centres unmarked) [Example 75, 6′-(2-Hydroxy-ethyl)-1-(2-(azetidin-3-yl)-2-hydroxy-acetyl)-sisomicin], in that order: more than 16 µg/mL and 1 to 16 µg/mL (≈ 1.65 to 26.5 µM).
For `CN[C@@H]1[C@@H](O)[C@@H](O[C@@H]2[C@@H](O)[C@H](O[C@H]3OC(CNCCCN)=CC[C@H]3N)[C@@H](N)C[C@H]2NC(=O)C(O)C2CNC2)OC[C@]1(C)O` (some centres unmarked) [Example 76, 6′-(3-Amino-propyl)-1-(2-(azetidin-3-yl)-2-hydroxy-acetyl)-sisomicin], in that order: 1 to 16 µg/mL (≈ 1.62 to 25.9 µM) and 1 to 16 µg/mL (≈ 1.62 to 25.9 µM).
Take `CN[C@@H]1[C@@H](O)[C@@H](O[C@@H]2[C@@H](O)[C@H](O[C@H]3OC(CNCC(O)CCN)=CC[C@H]3N)[C@@H](N)C[C@H]2NC(=O)C(O)C2CNC2)OC[C@]1(C)O` (some centres unmarked) [Example 77, 6′-(2-Hydroxy-4-amino-butyl)-1-(2-(azetidin-3-yl)-2-hydroxy-acetyl)-sisomicin]: the MIC in assay [1] and in assay [2] was 1 to 16 µg/mL (≈ 1.54 to 24.7 µM) throughout.
With `CN[C@@H]1[C@@H](O)[C@@H](O[C@@H]2[C@@H](O)[C@H](O[C@H]3OC(CNC[C@H]4C[C@H](N)C4)=CC[C@H]3N)[C@@H](N)C[C@H]2NC(=O)C2(O)CCNC2)OC[C@]1(C)O` (stereo partly drawn) [Example 78, 6′-(Methyl-trans-3-amino-cyclobutyl)-1-(3-hydroxy-pyrrolidin-3-yl-acetyl)-sisomicin], the MIC is 1 to 16 µg/mL (≈ 1.55 to 24.9 µM) in assay [1] and less than 1 µg/mL in assay [2].
For `CN[C@@H]1[C@@H](O)[C@@H](O[C@@H]2[C@@H](O)[C@H](O[C@H]3OC(CNCC4(CN)CC4)=CC[C@H]3N)[C@@H](N)C[C@H]2NC(=O)C2(O)CCNC2)OC[C@]1(C)O` (some centres unmarked) [Example 79], in that order: more than 16 µg/mL and 1 to 16 µg/mL (≈ 1.55 to 24.9 µM).
For `CN[C@@H]1[C@@H](O)[C@@H](O[C@@H]2[C@@H](O)[C@H](O[C@H]3OC(CNCCCC(O)CN)=CC[C@H]3N)[C@@H](N)C[C@H]2NC(=O)[C@@H](O)CN)OC[C@]1(C)O` (stereo partly drawn) [Example 80, 6′-(4-Hydroxy-5-amino-pentyl)-1-(3-amino-2(S)-hydroxy-propionyl)-sisomicin], in that order: less than 1 µg/mL and less than 1 µg/mL.
For `CN[C@@H]1[C@@H](O)[C@@H](O[C@@H]2[C@@H](O)[C@H](O[C@H]3OC(CNCCNC4CNC4)=CC[C@H]3N)[C@@H](N)C[C@H]2NC(=O)[C@@H](O)CN)OC[C@]1(C)O` [Example 81, 6′-(N-(Azetidin-3-yl)-2-amino-ethyl)-1-(3-amino-2(S)-hydroxy-propionyl)-sisomicin], in that order: more than 16 µg/mL and 1 to 16 µg/mL (≈ 1.58 to 25.3 µM).
On to `CN[C@@H]1[C@@H](O)[C@@H](O[C@@H]2[C@@H](O)[C@H](O[C@H]3OC(CNCC(O)CN)=CC[C@H]3N)[C@@H](N)C[C@H]2NC(=O)C(O)C2CNC2)OC[C@]1(C)O` (some centres unmarked) [Example 82, 6′-(2-Hydroxy-3-amino-propyl)-1-(2-(azetidin-3-yl)-2-hydroxy-acetyl)-sisomicin], for which the MIC in assay [1] was more than 16 µg/mL; in assay [2] it was 1 to 16 µg/mL (≈ 1.58 to 25.2 µM).
Regarding `CN[C@@H]1[C@@H](O)[C@@H](O[C@@H]2[C@@H](O)[C@H](O[C@H]3OC(CNCC4(O)CC(N)C4)=CC[C@H]3N)[C@@H](N)C[C@H]2NC(=O)C(O)C2CNC2)OC[C@]1(C)O` (some centres unmarked) [Example 83, 6′-(Methyl-3-amino-1-hydroxy-cyclobutyl)-1-(2-(azetidin-3-yl)-2-hydroxy-acetyl)-sisomicin], the minimum inhibitory concentration (MIC) in assay [1] is more than 16 µg/mL; in assay [2], 1 to 16 µg/mL (≈ 1.52 to 24.3 µM).
Turning to `CN[C@@H]1[C@@H](O)[C@@H](O[C@@H]2[C@@H](O)[C@H](O[C@H]3OC(CN)=CC[C@H]3NCC3CCNC3)[C@@H](N)C[C@H]2NC(=O)[C@@H](O)CCN)OC[C@]1(C)O` (stereo partly drawn) [Example 84, 2′-(Methyl-pyrrolidin-3-yl)-1-(4-amino-2(S)-hydroxy-butyryl)-sisomicin], the MIC in assay [1] is 1 to 16 µg/mL (≈ 1.58 to 25.3 µM); in assay [2] it was less than 1 µg/mL.
As for `CN[C@@H]1[C@@H](O)[C@@H](O[C@@H]2[C@@H](O)[C@H](O[C@H]3OC(CN)=CC[C@H]3NCC3CCCN3)[C@@H](N)C[C@H]2NC(=O)[C@@H](O)CCN)OC[C@]1(C)O` (stereo partly drawn) [Example 85, 2′-(Methyl-pyrrolidin-2-yl)-1-(4-amino-2(S)-hydroxy-butyryl)-sisomicin], the minimal inhibitory concentration (MIC) was 1 to 16 µg/mL (≈ 1.58 to 25.3 µM) in assay [1] and less than 1 µg/mL in assay [2].
For `CNCC(=O)N[C@@H]1CC=C(CN)O[C@@H]1O[C@H]1[C@H](O)[C@@H](O[C@H]2OC[C@](C)(O)[C@H](NC)[C@H]2O)[C@H](NC(=O)[C@@H](O)CCN)C[C@@H]1N` [Example 86, 2′-(N-methyl-amino-acetyl)-1-(4-amino-2(S)-hydroxy-butyryl)-sisomicin], in that order: 1 to 16 µg/mL (≈ 1.61 to 25.8 µM) and 1 to 16 µg/mL (≈ 1.61 to 25.8 µM).
For `CN[C@@H]1[C@@H](O)[C@@H](O[C@@H]2[C@@H](O)[C@H](O[C@H]3OC(CN)=CC[C@H]3NC(=O)CN)[C@@H](N)C[C@H]2NC(=O)[C@@H](O)CCN)OC[C@]1(C)O` [Example 87, 2′-(2-Amino-acetyl)-1-(4-amino-2(S)-hydroxy-butyryl)-sisomicin], in that order: 1 to 16 µg/mL (≈ 1.65 to 26.4 µM) and 1 to 16 µg/mL (≈ 1.65 to 26.4 µM).
Turning to `CN[C@@H]1[C@@H](O)[C@@H](O[C@@H]2[C@@H](O)[C@H](O[C@H]3OC(CN)=CC[C@H]3NC(=O)C(C)N)[C@@H](N)C[C@H]2NC(=O)[C@@H](O)CCN)OC[C@]1(C)O` (stereo partly drawn) [Example 88, 2′-(2-Amino-propionyl)-1-(4-amino-2(S)-hydroxy-butyryl)-sisomicin], the MIC in assay [1] and in assay [2] was 1 to 16 µg/mL (≈ 1.61 to 25.8 µM) in each case.
Regarding `CN[C@@H]1[C@@H](O)[C@@H](O[C@@H]2[C@@H](O)[C@H](O[C@H]3OC(CN)=CC[C@H]3NC(=O)C(O)CN)[C@@H](N)C[C@H]2NC(=O)[C@@H](O)CCN)OC[C@]1(C)O` (stereo partly drawn) [Example 89, 2′-(3-Amino-2-hydroxy-propionyl)-1-(4-amino-2(S)-hydroxy-butyryl)-sisomicin], the MIC in assay [1] is 1 to 16 µg/mL (≈ 1.57 to 25.2 µM); in assay [2], less than 1 µg/mL.
Take `CN[C@@H]1[C@@H](O)[C@@H](O[C@@H]2[C@@H](O)[C@H](O[C@H]3OC(CN)=CC[C@H]3NC(=O)C3CCCN3)[C@@H](N)C[C@H]2NC(=O)[C@@H](O)CCN)OC[C@]1(C)O` (some centres unmarked) [Example 90]: the MIC in assay [1] is 1 to 16 µg/mL (≈ 1.55 to 24.8 µM); in assay [2], less than 1 µg/mL.
Regarding `CN[C@@H]1[C@@H](O)[C@@H](O[C@@H]2[C@@H](O)[C@H](O[C@H]3OC(CN)=CC[C@H]3NCCCN)[C@@H](N)C[C@H]2NC(=O)[C@@H](O)CCN)OC[C@]1(C)O` [Example 91, 2′-(3-Amino-propyl)-1-(4-amino-2(S)-hydroxy-butyryl)-sisomicin], the MIC in assay [1] and in assay [2] was less than 1 µg/mL in each case.
